# Measured values taken from ChEMBL document CHEMBL1201862, “PubChem BioAssay data set” (2004).
# Activity calls are given as the source filed them.
# What was measured:
# [1] = target: T1, Carboxy-terminal domain RNA polymerase II polypeptide A small phosphatase 1 (Homo sapiens, UniProt Q9GZU7); assay: CTDSP1 inhibitors, concentration-response, biochemical, absorbance readout, ultra-high-throughput screen actives (AID 540297); format: functional
# T1 sequence (Q9GZU7 whole entry): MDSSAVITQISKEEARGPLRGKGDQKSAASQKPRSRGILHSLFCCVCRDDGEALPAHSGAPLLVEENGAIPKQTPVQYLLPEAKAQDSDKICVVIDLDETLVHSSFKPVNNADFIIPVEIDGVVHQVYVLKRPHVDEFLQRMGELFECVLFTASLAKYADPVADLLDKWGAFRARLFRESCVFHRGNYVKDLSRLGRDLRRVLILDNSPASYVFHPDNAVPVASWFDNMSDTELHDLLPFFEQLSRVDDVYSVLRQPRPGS
# [2] = target: T2, Replicative DNA helicase DnaB (Mycobacterium tuberculosis, UniProt P9WMR3); assay: DnaB intein splicing inhibitors, dose response, biochemical, cell-free fluorescence (AID 449749); format: functional
# T2 sequence (P9WMR3 whole entry): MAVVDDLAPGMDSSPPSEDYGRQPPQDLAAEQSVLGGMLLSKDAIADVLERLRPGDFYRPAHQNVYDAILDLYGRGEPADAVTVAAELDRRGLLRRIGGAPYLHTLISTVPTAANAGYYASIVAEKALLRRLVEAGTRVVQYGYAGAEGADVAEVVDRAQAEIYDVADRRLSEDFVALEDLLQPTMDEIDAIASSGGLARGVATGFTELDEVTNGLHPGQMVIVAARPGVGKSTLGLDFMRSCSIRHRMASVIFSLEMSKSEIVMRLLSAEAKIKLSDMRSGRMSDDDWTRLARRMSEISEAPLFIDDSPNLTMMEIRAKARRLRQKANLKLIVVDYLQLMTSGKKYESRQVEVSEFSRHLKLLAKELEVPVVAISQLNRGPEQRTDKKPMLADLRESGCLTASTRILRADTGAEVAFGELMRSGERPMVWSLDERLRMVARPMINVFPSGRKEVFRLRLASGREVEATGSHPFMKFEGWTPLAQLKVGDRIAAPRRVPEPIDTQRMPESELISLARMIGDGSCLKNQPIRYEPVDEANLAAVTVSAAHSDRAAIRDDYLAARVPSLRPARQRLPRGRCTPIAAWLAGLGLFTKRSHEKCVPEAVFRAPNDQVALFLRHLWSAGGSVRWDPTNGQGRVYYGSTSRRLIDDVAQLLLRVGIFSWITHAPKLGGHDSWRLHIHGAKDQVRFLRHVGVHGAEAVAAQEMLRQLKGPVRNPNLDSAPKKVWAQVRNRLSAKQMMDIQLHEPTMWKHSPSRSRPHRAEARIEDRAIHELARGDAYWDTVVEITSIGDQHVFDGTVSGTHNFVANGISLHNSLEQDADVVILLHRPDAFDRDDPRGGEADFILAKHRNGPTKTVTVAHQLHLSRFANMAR
# [3] = target: T3, Protein RecA (Mycobacterium tuberculosis, UniProt P9WHJ3); assay: Fluorescence Cell-Free Homogeneous Dose Retest to Identify Inhibitors of RecA-Intein Splicing Activity. [Related pubchem assays (depositor defined):AID2097, AID2223, AID489010, AID492950]; format: functional
# T3 sequence (P9WHJ3 whole entry): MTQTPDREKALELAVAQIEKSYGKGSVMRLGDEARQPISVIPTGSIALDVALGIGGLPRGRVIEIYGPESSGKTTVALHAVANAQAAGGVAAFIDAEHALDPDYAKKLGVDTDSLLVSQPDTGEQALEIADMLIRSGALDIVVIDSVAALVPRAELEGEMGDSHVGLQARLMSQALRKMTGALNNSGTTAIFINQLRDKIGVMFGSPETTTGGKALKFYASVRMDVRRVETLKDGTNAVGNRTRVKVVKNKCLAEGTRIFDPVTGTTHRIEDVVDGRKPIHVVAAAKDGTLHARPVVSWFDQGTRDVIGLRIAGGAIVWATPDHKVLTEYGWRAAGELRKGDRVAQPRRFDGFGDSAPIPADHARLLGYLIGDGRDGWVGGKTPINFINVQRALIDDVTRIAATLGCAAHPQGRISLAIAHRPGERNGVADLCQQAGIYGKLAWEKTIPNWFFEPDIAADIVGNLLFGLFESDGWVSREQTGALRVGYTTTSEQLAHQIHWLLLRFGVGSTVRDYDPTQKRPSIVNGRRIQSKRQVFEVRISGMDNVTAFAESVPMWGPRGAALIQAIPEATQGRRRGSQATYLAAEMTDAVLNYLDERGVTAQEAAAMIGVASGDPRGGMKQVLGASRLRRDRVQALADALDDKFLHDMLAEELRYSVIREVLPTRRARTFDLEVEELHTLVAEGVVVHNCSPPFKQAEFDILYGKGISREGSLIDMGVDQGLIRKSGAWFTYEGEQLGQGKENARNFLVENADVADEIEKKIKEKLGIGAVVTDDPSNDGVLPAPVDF
# [4] = DRD fibroblast viability loss – cell-based, non-viral oncogenic, luminescence, dose response (AID 1934); format: functional; settings: Homo sapiens
# [5] = system: BJ; assay: BJ-TERT fibroblast viability loss – cell-based, RAS-independent, luminescence, dose response (AID 1933); format: functional; settings: Homo sapiens
# [6] = target: T4, Heat shock factor protein 1 (Mus musculus, UniProt P38532); assay: decrease of HSF1-responsive luciferase luminescence – cell-based, NIH3T3, dose retest, confirmation (AID 2382); format: functional;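 also: NIH3T3 fibroblasts with HSF1-driven luciferase reporter stressed by proteasome inhibitor MG132; luminescence from HSF1-driven luciferase expression after 8 hours of MG132 stress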
# T4 sequence (P38532 whole entry): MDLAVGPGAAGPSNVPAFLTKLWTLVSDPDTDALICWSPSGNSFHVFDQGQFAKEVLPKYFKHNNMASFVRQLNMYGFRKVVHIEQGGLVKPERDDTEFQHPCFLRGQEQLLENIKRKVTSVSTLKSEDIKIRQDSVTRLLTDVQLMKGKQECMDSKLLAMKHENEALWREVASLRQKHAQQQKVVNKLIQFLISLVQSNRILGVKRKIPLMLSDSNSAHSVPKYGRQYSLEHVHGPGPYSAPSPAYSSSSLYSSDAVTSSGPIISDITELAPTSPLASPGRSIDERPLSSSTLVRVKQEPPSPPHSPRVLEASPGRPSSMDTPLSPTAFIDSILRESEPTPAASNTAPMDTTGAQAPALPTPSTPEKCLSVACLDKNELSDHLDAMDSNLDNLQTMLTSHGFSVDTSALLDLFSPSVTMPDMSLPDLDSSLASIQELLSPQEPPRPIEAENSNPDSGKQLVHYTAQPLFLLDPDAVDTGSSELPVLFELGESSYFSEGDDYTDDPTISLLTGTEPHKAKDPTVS
# [7] = system: BJ; assay: cells; format: functional, cell-based; settings: Homo sapiens
# [8] = system: BJ; assay: BJ-TERT-LT-ST fibroblast viability loss – cell-based, RAS-independent, luminescence, dose response (AID 1935); format: functional; settings: Homo sapiens;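 also: BJ fibroblasts immortalized with TERT plus LT and ST oncogenes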
# [9] = target: T5, Calpain-2 catalytic subunit (Sus scrofa, UniProt P43367); assay: m-calpain protease blockers, concentration series – biochemical, fluorogenic peptide substrate, dose response (AID 1420); format: functional
# T5 sequence (P43367 whole entry): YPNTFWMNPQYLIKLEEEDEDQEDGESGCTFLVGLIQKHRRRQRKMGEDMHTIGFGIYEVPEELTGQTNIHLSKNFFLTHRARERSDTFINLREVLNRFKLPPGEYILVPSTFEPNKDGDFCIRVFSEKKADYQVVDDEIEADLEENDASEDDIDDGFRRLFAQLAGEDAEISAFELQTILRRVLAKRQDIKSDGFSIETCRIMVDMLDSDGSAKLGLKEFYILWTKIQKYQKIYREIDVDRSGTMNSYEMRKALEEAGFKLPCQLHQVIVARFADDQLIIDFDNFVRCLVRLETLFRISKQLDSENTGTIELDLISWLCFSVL
# [10] = target: Induced myeloid leukemia cell differentiation protein Mcl-1 (Homo sapiens, UniProt Q07820); format: functional
# Chain of Induced myeloid leukemia cell differentiation protein Mcl-1 (Q07820 whole entry): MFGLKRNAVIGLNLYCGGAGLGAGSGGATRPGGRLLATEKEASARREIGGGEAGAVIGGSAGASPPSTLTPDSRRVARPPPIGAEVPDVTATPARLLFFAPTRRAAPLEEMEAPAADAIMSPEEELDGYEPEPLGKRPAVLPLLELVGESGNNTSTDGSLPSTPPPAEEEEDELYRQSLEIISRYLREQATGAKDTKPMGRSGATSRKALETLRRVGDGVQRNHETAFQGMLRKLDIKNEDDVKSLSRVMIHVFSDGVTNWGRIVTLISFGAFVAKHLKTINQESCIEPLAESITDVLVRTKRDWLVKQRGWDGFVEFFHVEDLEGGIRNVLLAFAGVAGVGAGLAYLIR
# [11] = target: Cytochrome P450 2C19 (Homo sapiens, UniProt P33261); assay: Cytochrome panel assay with activity outcomes. Panel member name: p450-cyp2c19 Compounds with AC50 equal or less than 10 uM are considered active; format: functional; settings: read-out: AC50
# Chain of Cytochrome P450 2C19 (P33261 whole entry): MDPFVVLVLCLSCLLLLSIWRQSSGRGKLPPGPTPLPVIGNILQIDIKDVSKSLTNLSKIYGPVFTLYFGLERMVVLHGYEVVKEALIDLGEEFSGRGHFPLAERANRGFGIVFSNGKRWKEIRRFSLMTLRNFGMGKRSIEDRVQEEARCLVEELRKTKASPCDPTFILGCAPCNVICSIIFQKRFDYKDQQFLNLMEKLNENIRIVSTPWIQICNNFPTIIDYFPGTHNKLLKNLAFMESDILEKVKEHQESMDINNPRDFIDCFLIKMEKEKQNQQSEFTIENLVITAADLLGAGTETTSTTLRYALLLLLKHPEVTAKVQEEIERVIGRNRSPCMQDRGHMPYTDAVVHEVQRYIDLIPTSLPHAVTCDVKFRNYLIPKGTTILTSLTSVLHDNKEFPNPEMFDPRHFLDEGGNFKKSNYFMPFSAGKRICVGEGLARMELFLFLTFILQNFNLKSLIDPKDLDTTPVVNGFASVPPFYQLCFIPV
# [12] = Trypanosoma cruzi growth suppression in host cells – NIH3T3 host cells, beta-gal luminescence, confirmation (AID 2044); format: functional, cell-based;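 also: intracellular parasites grown in NIH/3T3 mouse fibroblasts as host cells; luminescent beta-galactosidase reporter signal from transgenic T. cruzi replicating inside host cells; inhibitors lower the luminescence signal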
# [13] = NIH3T3 cell viability loss – ATP luminescence, mouse fibroblasts, counter-screen, dose response (AID 2010); format: functional, cell-based;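 also: cells exposed to compound for about 90 hours before reading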
# [14] = NIH-3T3 fibroblast cytotoxicity, dose response, cytotoxicity control, cell-based, fluorescence, Alamar Blue, secondary assay (AID 2327); format: functional;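 also: NIH-3T3 mouse fibroblasts cultured with fluconazole at 8 µg/mL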
# [15] = fluconazole-exposed Candida albicans growth modulators – fluorescence, retest, confirmation (AID 2467); format: functional, cell-based
# [16] = HIV-1 AD8 envelope cell-cell fusion blockers – cherry-pick, dose response (AID 652062); format: functional, cell-based;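 also: luciferase signal from cell-cell fusion driven by HIV-1 clade B AD8 Env; potency is for inhibitors of fusion seen as a drop in luminescence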
# [17] = blockers of HIV-1 envelope-mediated cell-cell fusion – cherry-pick, dose response (AID 652057); format: functional, cell-based
compound,measurement,setting,value
O=C(CCS(=O)(=O)c1ccc(Br)cc1)NCCC1=CCCCC1,IC50,[1],9.5 µM (active)
O=C(Cc1ccccc1)c1c[nH]c(C(=O)C(Cl)(Cl)Cl)c1,AC50,[2],4.92 µM (active)
same,EC50,[3],4.99 µM (active)
O=C(CCl)Nc1ccccc1C(=O)c1ccccc1,EC50,[4],35.3 µM (active)
same,EC50,[5],> 150 µM (not active)
same,EC50,[6],> 195 µM (not active)
same,EC50,[7],> 150 µM (not active)
same,EC50,[8],> 150 µM (inconclusive)
CS(=O)(=O)N(CC(=O)NCCc1ccccc1)c1cccc([N+](=O)[O-])c1,IC50,[9],5.74 µM (not active)
Cc1cc(=O)oc2cc(NC(=O)c3cc(F)ccc3F)ccc12,IC50,[1],6.83 µM (active)
O=C(c1ccc2c(c1)OCO2)N1CCN(c2ccc(C(F)(F)F)cn2)CC1,IC50,[9],< 0.4 µM (not active)
Cc1ccc(NC2=NC(=O)/C(=C/C=C/c3ccco3)S2)cc1,IC50,[10],8.32 µM (active)
Cc1onc(-c2c(Cl)cccc2Cl)c1C(=O)n1nnc2ccccc21,AC50,[2],16.4 µM (active)
same,EC50,[3],26.5 µM (active)
C[n+]1cn(CC(O)COCc2ccccc2)c2ccccc21 (stereo not given),IC50,[1],10.8 µM (active)
same,AC50,[11],15.8 µM (inconclusive)
CCC(C(=O)OCC(=O)Nc1ccccc1-c1ccccc1)c1ccccc1 (stereo not given),IC50,[9],9.96 µM (not active)
COc1ccc(N2CCN(C(=O)CCC(=O)c3cc(C)sc3C)CC2)cc1,IC50,[9],30.3 µM (not active)
CC1=NN(c2ccccc2)C(=O)/C1=C\c1cc(C)n(-c2cccnc2)c1C,AC50,[2],44.8 µM (active)
same,EC50,[3],88.8 µM (active)
COCCNC(=O)NC(=O)CN1CCCc2ccccc21,IC50,[9],< 0.4 µM (not active)
COc1cccc2c(C)c(C(=O)O)[nH]c12,IC50,[10],2.81 µM (active)
same,EC50,[6],5.27 µM (active)
COC(=O)CC1(c2cccc3ccccc23)C(=O)c2ccccc2C1=O,AC50,[2],5.91 µM (active)
same,EC50,[3],4.46 µM (active)
CC1=Nc2ccccc2N=C(NC(=O)CN2CCN(c3ccccc3)CC2)C1c1ccccc1 (stereo not given),EC50,[12],2.06 µM (active)
same,EC50,[13],> 30 µM (not active)
same,IC50,[9],> 50 µM (not active)
O=C(COC(=O)/C=C/c1ccco1)Nc1ccc(F)cc1Cl,IC50,[1],36.6 µM (active)
Cc1nn(Cc2ccccc2)c2c1C(c1ccc(Cl)cc1)C(C#N)=C(N)O2 (stereo not given),AC50,[2],6.41 µM (active)
same,EC50,[3],3.58 µM (active)
O=C(Nc1ccc(Cl)c(Cl)c1)N1N=CCC1c1ccccc1 (stereo not given),IC50,[9],8.45 µM (not active)
COc1ccccc1-c1cnnc(S)n1,EC50,[3],111 µM (active)
O=C(Nc1ccc(NC(=O)c2cccs2)cc1)c1ccc(Br)o1,IC50,[1],7.45 µM (active)
same,EC50,[14],> 160 µM (inconclusive)
same,EC50,[15],2.22 µM (active)
COc1cc2c(C#CCO)c(-c3ccc(C#N)cc3)oc(=O)c2cc1OC,IC50,[1],8.45 µM (active)
O=C1c2cccc3cc([N+](=O)[O-])cc(c23)C(=O)N1/N=C/c1ccc(O)cc1O,IC50,[10],1.44 µM (active)
O=C(CNc1ccc2ccccc2c1)N/N=C/C=C/c1cccc([N+](=O)[O-])c1,IC50,[10],6.79 µM (active)
O=C(C[C@H]1CC[C@H]2[C@@H](COC[C@H](O)CN2C(=O)Nc2ccc(Cl)c(Cl)c2)O1)NCc1ccncc1,AC50,[16],26.5 µM (active)
same,AC50,[17],31.5 µM (active)
CN(C)CCCNC(=O)[C@H]1[C@H](CO)[C@H]2Cn3c(ccc(C4=CCCC4)c3=O)[C@H]2N1CCC(F)(F)F,AC50,[16],1.09 µM (active)
O=C(NCCNCc1ccccc1)c1ccco1,IC50,[1],9.15 µM (active)
CN1CCN(c2ccc([N+](=O)[O-])cc2/C=N/NC(=O)c2cccc([N+](=O)[O-])c2)CC1,IC50,[10],3.57 µM (active)
COc1cc(/C=N/NC(=O)c2ccc([N+](=O)[O-])cc2Cl)cc(Br)c1O,IC50,[10],15.2 µM (not active)
